Assay results as given in patent publication US9708314B2, “Heterocyclic amide compound” (NISSAN CHEMICAL INDUSTRIES, LTD., priority 2013, dated 2017).

Key:
Format in all cases: in vivo
[1] = tested on: Echinochloa oryzacola Vasing.; assay: Test Example 2: herbicidal activity, application during weed generation in submerged conditions; conditions: Eighteenth Table; application herbicide amount 320 g/ha
In short: (§1)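 Scored three weeks post-application on a 0–5 scale (5: ≥90% herbicidal ratio, almost withered; 0: ≤5%). Plants raised from mixed-sown seed in submerged alluvial soil (4 cm water), 25–30 °C greenhouse; water-diluted emulsion applied onto water surface at one- to two-leaf stage, dose in g/ha.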

Monochoria vaginalis = assay: as above; conditions: Eighteenth Table; application herbicide amount 320 g/ha
In short: as §1

Scirpus juncoides = assay: as above; conditions: Eighteenth Table; application herbicide amount 320 g/ha
In short: as §1

Abutilon theophrasti = assay: Test Example 4: herbicidal effect by application to foliage (diluvial soil, plastic box); conditions: for M: herbicidal effect on Abutilon theophrasti: application to foliage, application herbicide amount 320 g/ha; for M (Abutilon theophrasti) herbicidal effect grade: Application herbicide amount 320 g/ha, foliage application
In short: (§2)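 Seeds sown in sterilized diluvial soil, covered ~1.5 cm, grown 14 days in greenhouse at 25° C. to 30° C. Emulsion formulation diluted in water to set rate (g/ha) and sprayed onto stems and leaves. Effect scored visually 3 weeks later on 0–5 scale (5 = ≥90% herbicidal ratio, 0 = ≤5%).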

Alopecurus myosuroides = assay: as above; conditions: for J: herbicidal effect on Alopecurus myosuroides: application to foliage, application herbicide amount 320 g/ha; for J (Alopecurus myosuroides) herbicidal effect grade: Application herbicide amount 320 g/ha, foliage application
In short: as §2

Amaranthus retroflexus = assay: as above; conditions: for N: herbicidal effect on Amaranthus retroflexus: application to foliage, application herbicide amount 320 g/ha; for N (Amaranthus retroflexus) herbicidal effect grade: Application herbicide amount 320 g/ha, foliage application
In short: as §2

Apera spica-venti. = assay: as above; conditions: for L: herbicidal effect on Apera spica-venti.: application to foliage, application herbicide amount 320 g/ha; for L (Apera spica-venti.) herbicidal effect grade: Application herbicide amount 320 g/ha, foliage application
In short: as §2

Avena fatua = assay: as above; conditions: for I: herbicidal effect on Avena fatua: application to foliage, application herbicide amount 320 g/ha; for I (Avena fatua) herbicidal effect grade: Application herbicide amount 320 g/ha, foliage application
In short: as §2

Chenopodium album = assay: as above; conditions: for O: herbicidal effect on Chenopodium album: application to foliage, application herbicide amount 320 g/ha; for O (Chenopodium album) herbicidal effect grade: Application herbicide amount 320 g/ha, foliage application
In short: as §2

Digitaria ciliaris = assay: as above; conditions: for F: herbicidal effect on Digitaria ciliaris: application to foliage, application herbicide amount 320 g/ha; for F (Digitaria ciliaris) herbicidal effect grade: Application herbicide amount 320 g/ha, foliage application
In short: as §2

[2] = tested on: Echinochloa crus-galli var. crus-galli; assay: as above; conditions: for H: herbicidal effect on Echinochloa crus-galli var. crus-galli: application to foliage, application herbicide amount 320 g/ha; for H (Echinochloa crus-galli var. crus-galli) herbicidal effect grade: Application herbicide amount 320 g/ha, foliage application
In short: as §2

Galium spurium = assay: as above; conditions: for Q: herbicidal effect on Galium spurium: application to foliage, application herbicide amount 320 g/ha; for Q (Galium spurium) herbicidal effect grade: Application herbicide amount 320 g/ha, foliage application
In short: as §2

Lolium multiflorum Lam. = assay: as above; conditions: for K: herbicidal effect on Lolium multiflorum Lam.: application to foliage, application herbicide amount 320 g/ha; for K (Lolium multiflorum Lam.) herbicidal effect grade: Application herbicide amount 320 g/ha, foliage application
In short: as §2

Stellaria media = assay: as above; conditions: for P: herbicidal effect on Stellaria media: application to foliage, application herbicide amount 320 g/ha; for P (Stellaria media) herbicidal effect grade: Application herbicide amount 320 g/ha, foliage application
In short: as §2

Veronica persica = assay: as above; conditions: for R: herbicidal effect on Veronica persica: application to foliage, application herbicide amount 320 g/ha; for R (Veronica persica) herbicidal effect grade: Application herbicide amount 320 g/ha, foliage application
In short: as §2

[3] = tested on: Beta vulgaris ssp. vulgaris; assay: Test Example 4: effect on crop by application to foliage (diluvial soil, plastic box); conditions: for f: effect on crop, Beta vulgaris ssp. vulgaris: application to foliage, application herbicide amount 320 g/ha; for f (Beta vulgaris ssp. vulgaris) effect on crop grade: Application herbicide amount 320 g/ha, foliage application
In short: as §2

Brassica campestris L. = assay: as above; conditions: for g: effect on crop, Brassica campestris L.: application to foliage, application herbicide amount 320 g/ha; for g (Brassica campestris L.) effect on crop grade: Application herbicide amount 320 g/ha, foliage application
In short: as §2

Glycine max = assay: as above; conditions: for d: effect on crop, Glycine max: application to foliage, application herbicide amount 320 g/ha; for d (Glycine max) effect on crop grade: Application herbicide amount 320 g/ha, foliage application
In short: as §2

Triticum aestivum = assay: as above; conditions: for e: effect on crop, Triticum aestivum: application to foliage, application herbicide amount 320 g/ha; for e (Triticum aestivum) effect on crop grade: Application herbicide amount 320 g/ha, foliage application
In short: as §2

Zea mays = assay: as above; conditions: for c: effect on crop, Zea mays: application to foliage, application herbicide amount 320 g/ha; for c (Zea mays) effect on crop grade: Application herbicide amount 320 g/ha, foliage application
In short: as §2

[4] = tested on: directly sowed Oryza sativa; assay: as above; conditions: for b: effect on crop, directly sowed Oryza sativa: application to foliage, application herbicide amount 320 g/ha; for b (directly sowed Oryza sativa) effect on crop grade: Application herbicide amount 320 g/ha, foliage application
In short: as §2

Compound | A (Echinochloa oryzicola Vasing.) herbicidal ratio grade [1] | C (Monochoria vaginalis) herbicidal ratio grade (Monochoria vaginalis) | B (Scirpus juncoides) herbicidal ratio grade (Scirpus juncoides) | M: herbicidal effect on Abutilon theophrasti (Abutilon theophrasti) | J: herbicidal effect on Alopecurus myosuroides (Alopecurus myosuroides) | N: herbicidal effect on Amaranthus retroflexus (Amaranthus retroflexus) | L: herbicidal effect on Apera spica-venti. (Apera spica-venti.) | I: herbicidal effect on Avena fatua (Avena fatua) | O: herbicidal effect on Chenopodium album (Chenopodium album) | F: herbicidal effect on Digitaria ciliaris (Digitaria ciliaris) | H: herbicidal effect on Echinochloa crus-galli var. crus-galli [2] | Q: herbicidal effect on Galium spurium (Galium spurium) | K: herbicidal effect on Lolium multiflorum Lam. (Lolium multiflorum Lam.) | P: herbicidal effect on Stellaria media (Stellaria media) | R: herbicidal effect on Veronica persica (Veronica persica) | f: effect on crop, Beta vulgaris ssp. vulgaris [3] | g: effect on crop, Brassica campestris L. (Brassica campestris L.) | d: effect on crop, Glycine max (Glycine max) | e: effect on crop, Triticum aestivum (Triticum aestivum) | c: effect on crop, Zea mays (Zea mays) | other results
Cc1cc(-c2nnc3c(C(=O)Nc4nnnn4C)ccc(C(F)(F)F)n23)no1 [2-017] | 5 (Herbicidal ratio of 90% or more (almost completely withered)) | 4 (Herbicidal ratio of 70% or more and less than 90%) | 4 (Herbicidal ratio of 70% or more and less than 90%) | 5 (Herbicidal ratio of 90% or more (almost completely withered)) | 3 (Herbicidal ratio of 40% or more and less than 70%) | 5 (Herbicidal ratio of 90% or more (almost completely withered)) | 4 (Herbicidal ratio of 70% or more and less than 90%) | 4 (Herbicidal ratio of 70% or more and less than 90%) | 5 (Herbicidal ratio of 90% or more (almost completely withered)) | 5 (Herbicidal ratio of 90% or more (almost completely withered)) | 5 (Herbicidal ratio of 90% or more (almost completely withered)) | 1 (Herbicidal ratio of 5% or more and less than 20%) | 2 (Herbicidal ratio of 20% or more and less than 40%) | 5 (Herbicidal ratio of 90% or more (almost completely withered)) | 5 (Herbicidal ratio of 90% or more (almost completely withered)) | 5 (Herbicidal ratio of 90% or more (almost completely withered)) | 4 (Herbicidal ratio of 70% or more and less than 90%) | 4 (Herbicidal ratio of 70% or more and less than 90%) | 3 (Herbicidal ratio of 40% or more and less than 70%) | 1 (Herbicidal ratio of 5% or more and less than 20%) | b: effect on crop, directly sowed Oryza sativa [4]: 5 (Herbicidal ratio of 90% or more (almost completely withered))
CCC(CC)c1nnc2c(C(=O)Nc3nnco3)ccc(C(F)(F)F)n12 [1-145] | 4 (Herbicidal ratio of 70% or more and less than 90%) | 4 (Herbicidal ratio of 70% or more and less than 90%) | 4 (Herbicidal ratio of 70% or more and less than 90%) |  |  |  |  |  |  |  |  |  |  |  |  |  |  |  |  |  | M (Abutilon theophrasti) herbicidal effect grade (Abutilon theophrasti): 3 (Herbicidal ratio of 40% or more and less than 70%); J (Alopecurus myosuroides) herbicidal effect grade (Alopecurus myosuroides): 1 (Herbicidal ratio of 5% or more and less than 20%); N (Amaranthus retroflexus) herbicidal effect grade (Amaranthus retroflexus): 4 (Herbicidal ratio of 70% or more and less than 90%); L (Apera spica-venti.) herbicidal effect grade (Apera spica-venti.): 3 (Herbicidal ratio of 40% or more and less than 70%); I (Avena fatua) herbicidal effect grade (Avena fatua): 3 (Herbicidal ratio of 40% or more and less than 70%); O (Chenopodium album) herbicidal effect grade (Chenopodium album): 5 (Herbicidal ratio of 90% or more (almost completely withered)); F (Digitaria ciliaris) herbicidal effect grade (Digitaria ciliaris): 5 (Herbicidal ratio of 90% or more (almost completely withered)); H (Echinochloa crus-galli var. crus-galli) herbicidal effect grade [2]: 5 (Herbicidal ratio of 90% or more (almost completely withered)); Q (Galium spurium) herbicidal effect grade (Galium spurium): 1 (Herbicidal ratio of 5% or more and less than 20%); K (Lolium multiflorum Lam.) herbicidal effect grade (Lolium multiflorum Lam.): 2 (Herbicidal ratio of 20% or more and less than 40%); P (Stellaria media) herbicidal effect grade (Stellaria media): 5 (Herbicidal ratio of 90% or more (almost completely withered)); R (Veronica persica) herbicidal effect grade (Veronica persica): 5 (Herbicidal ratio of 90% or more (almost completely withered)); f (Beta vulgaris ssp. vulgaris) effect on crop grade [3]: 5 (Herbicidal ratio of 90% or more (almost completely withered)); g (Brassica campestris L.) effect on crop grade (Brassica campestris L.): 3 (Herbicidal ratio of 40% or more and less than 70%); d (Glycine max) effect on crop grade (Glycine max): 3 (Herbicidal ratio of 40% or more and less than 70%); e (Triticum aestivum) effect on crop grade (Triticum aestivum): 2 (Herbicidal ratio of 20% or more and less than 40%); c (Zea mays) effect on crop grade (Zea mays): 0 (Herbicidal ratio of 5% or less (almost no effect)); b (directly sowed Oryza sativa) effect on crop grade [4]: 3 (Herbicidal ratio of 40% or more and less than 70%)
Cc1nnc(NC(=O)c2ccc(C(F)(F)F)n3c(N4CCS(=O)(=O)CC4)nnc23)o1 [1-120] | 3 (Herbicidal ratio of 40% or more and less than 70%) | 2 (Herbicidal ratio of 20% or more and less than 40%) | 3 (Herbicidal ratio of 40% or more and less than 70%) |  |  |  |  |  |  |  |  |  |  |  |  |  |  |  |  |  | M (Abutilon theophrasti) herbicidal effect grade (Abutilon theophrasti): 4 (Herbicidal ratio of 70% or more and less than 90%); J (Alopecurus myosuroides) herbicidal effect grade (Alopecurus myosuroides): 3 (Herbicidal ratio of 40% or more and less than 70%); N (Amaranthus retroflexus) herbicidal effect grade (Amaranthus retroflexus): 5 (Herbicidal ratio of 90% or more (almost completely withered)); L (Apera spica-venti.) herbicidal effect grade (Apera spica-venti.): 5 (Herbicidal ratio of 90% or more (almost completely withered)); I (Avena fatua) herbicidal effect grade (Avena fatua): 3 (Herbicidal ratio of 40% or more and less than 70%); O (Chenopodium album) herbicidal effect grade (Chenopodium album): 5 (Herbicidal ratio of 90% or more (almost completely withered)); F (Digitaria ciliaris) herbicidal effect grade (Digitaria ciliaris): 5 (Herbicidal ratio of 90% or more (almost completely withered)); H (Echinochloa crus-galli var. crus-galli) herbicidal effect grade [2]: 5 (Herbicidal ratio of 90% or more (almost completely withered)); Q (Galium spurium) herbicidal effect grade (Galium spurium): 5 (Herbicidal ratio of 90% or more (almost completely withered)); K (Lolium multiflorum Lam.) herbicidal effect grade (Lolium multiflorum Lam.): 3 (Herbicidal ratio of 40% or more and less than 70%); P (Stellaria media) herbicidal effect grade (Stellaria media): 5 (Herbicidal ratio of 90% or more (almost completely withered)); R (Veronica persica) herbicidal effect grade (Veronica persica): 5 (Herbicidal ratio of 90% or more (almost completely withered)); f (Beta vulgaris ssp. vulgaris) effect on crop grade [3]: 5 (Herbicidal ratio of 90% or more (almost completely withered)); g (Brassica campestris L.) effect on crop grade (Brassica campestris L.): 5 (Herbicidal ratio of 90% or more (almost completely withered)); d (Glycine max) effect on crop grade (Glycine max): 4 (Herbicidal ratio of 70% or more and less than 90%); e (Triticum aestivum) effect on crop grade (Triticum aestivum): 3 (Herbicidal ratio of 40% or more and less than 70%); c (Zea mays) effect on crop grade (Zea mays): 0 (Herbicidal ratio of 5% or less (almost no effect)); b (directly sowed Oryza sativa) effect on crop grade [4]: 2 (Herbicidal ratio of 20% or more and less than 40%)
Cn1nnnc1NC(=O)c1ccc(C(F)(F)F)n2c(C3CCOC3)nnc12 (stereo not drawn) [2-022] | 5 (Herbicidal ratio of 90% or more (almost completely withered)) | 4 (Herbicidal ratio of 70% or more and less than 90%) | 5 (Herbicidal ratio of 90% or more (almost completely withered)) | 5 (Herbicidal ratio of 90% or more (almost completely withered)) | 3 (Herbicidal ratio of 40% or more and less than 70%) | 5 (Herbicidal ratio of 90% or more (almost completely withered)) | 5 (Herbicidal ratio of 90% or more (almost completely withered)) | 4 (Herbicidal ratio of 70% or more and less than 90%) | 5 (Herbicidal ratio of 90% or more (almost completely withered)) | 4 (Herbicidal ratio of 70% or more and less than 90%) | 5 (Herbicidal ratio of 90% or more (almost completely withered)) | 4 (Herbicidal ratio of 70% or more and less than 90%) | 3 (Herbicidal ratio of 40% or more and less than 70%) | 5 (Herbicidal ratio of 90% or more (almost completely withered)) | 5 (Herbicidal ratio of 90% or more (almost completely withered)) | 5 (Herbicidal ratio of 90% or more (almost completely withered)) | 5 (Herbicidal ratio of 90% or more (almost completely withered)) | 5 (Herbicidal ratio of 90% or more (almost completely withered)) | 3 (Herbicidal ratio of 40% or more and less than 70%) | 1 (Herbicidal ratio of 5% or more and less than 20%) | b: effect on crop, directly sowed Oryza sativa [4]: 5 (Herbicidal ratio of 90% or more (almost completely withered))
